{"source": "patent US6726936B1", "about": "“Antimicrobial agents” (Sumitomo Metal Mining Co., Ltd., priority 1998, dated 2004)", "key": {"[1]": {"experiment": "NaCl concentration required to stabilize silver-chloro complex salts", "format": "physicochemical", "settings": "for NaCl CONCENTRATION REQUIRED TO STABILIZE SILVER-CHLORO COMPLEX SALTS IN AQUEOUS SOLUTION OF 70% (w/v) ETHANOL (b) / NaCl CONCENTRATION REQUIRED TO STABILIZE SILVER-CHLORO COMPLEX SALTS IN WATER (AQUEOUS SOLUTION) (a): 25° C.", "protocol": "The concentration of the chloride in the second antimicrobial agent in accordance with the present invention is not particularly limited, but it is preferable that the chloride be added in a predetermined concentration in accordance with the concentration of the silver-chloro complex salts contained in the antimicrobial agent. […] Specifically, the required concentration of the chloride to stabilize the silver-chloro complex salts (at 25° C.) has the following correlation in water or in a 70%(w/v) ethanol aqueous solution."}, "[2]": {"experiment": "upper limit value of the silver-chloro complex salts in sodium chloride-water-ethanol", "format": "physicochemical", "settings": "water and ethanol mixed in the volume ratio of 32:68, 3%(w/v) of sodium chloride", "text": "For example, in the system of silver-chloro complex salts (sodium tetrachloroargentate (I))-sodium chloride-water-ethanol, the upper limit value of the silver-chloro complex salts is 46 ppm when water and ethanol was mixed in the volume ratio of 32:68 and 3%(w/v) of sodium chloride was contained therein."}, "[3]": {"settings": "silver ion concentration 0.183 ppm"}, "[4]": {"settings": "silver ion concentration 0.410 ppm"}, "[5]": {"settings": "silver ion concentration 2.600 ppm"}, "[6]": {"settings": "silver ion concentration 8.697 ppm"}, "[7]": {"settings": "silver ion concentration 42.189 ppm"}}}
{"smiles": "[Cl][Ag-3]([Cl])([Cl])[Cl].[Na+].[Na+].[Na+]", "note": "[SILVER-CHLORO COMPLEX SALTS, sodium tetrachloroargentate (I)]", "values": [{"measurement": "ratio of NaCl concentration required in 70% ethanol to that required in water", "setting": "[1]; [3]", "value": 0.044}, {"measurement": "NaCl CONCENTRATION REQUIRED TO STABILIZE SILVER-CHLORO COMPLEX SALTS IN AQUEOUS SOLUTION OF 70% (w/v) ETHANOL (b)", "setting": "[1]; [3]", "value": 0.128, "unit": "g/L"}, {"measurement": "NaCl CONCENTRATION REQUIRED TO STABILIZE SILVER-CHLORO COMPLEX SALTS IN WATER (AQUEOUS SOLUTION) (a)", "setting": "[1]; [3]", "value": 2.925, "unit": "g/L"}, {"measurement": "ratio of NaCl concentration required in 70% ethanol to that required in water", "setting": "[1]; [4]", "value": 0.049}, {"measurement": "NaCl CONCENTRATION REQUIRED TO STABILIZE SILVER-CHLORO COMPLEX SALTS IN AQUEOUS SOLUTION OF 70% (w/v) ETHANOL (b)", "setting": "[1]; [4]", "value": 0.287, "unit": "g/L"}, {"measurement": "NaCl CONCENTRATION REQUIRED TO STABILIZE SILVER-CHLORO COMPLEX SALTS IN WATER (AQUEOUS SOLUTION) (a)", "setting": "[1]; [4]", "value": 5.850, "unit": "g/L"}, {"measurement": "ratio of NaCl concentration required in 70% ethanol to that required in water", "setting": "[1]; [5]", "value": 0.062}, {"measurement": "NaCl CONCENTRATION REQUIRED TO STABILIZE SILVER-CHLORO COMPLEX SALTS IN AQUEOUS SOLUTION OF 70% (w/v) ETHANOL (b)", "setting": "[1]; [5]", "value": 1.820, "unit": "g/L"}, {"measurement": "NaCl CONCENTRATION REQUIRED TO STABILIZE SILVER-CHLORO COMPLEX SALTS IN WATER (AQUEOUS SOLUTION) (a)", "setting": "[1]; [5]", "value": 29.250, "unit": "g/L"}, {"measurement": "ratio of NaCl concentration required in 70% ethanol to that required in water", "setting": "[1]; [6]", "value": 0.107}, {"measurement": "NaCl CONCENTRATION REQUIRED TO STABILIZE SILVER-CHLORO COMPLEX SALTS IN AQUEOUS SOLUTION OF 70% (w/v) ETHANOL (b)", "setting": "[1]; [6]", "value": 6.088, "unit": "g/L"}, {"measurement": "NaCl CONCENTRATION REQUIRED TO STABILIZE SILVER-CHLORO COMPLEX SALTS IN WATER (AQUEOUS SOLUTION) (a)", "setting": "[1]; [6]", "value": 57.038, "unit": "g/L"}, {"measurement": "ratio of NaCl concentration required in 70% ethanol to that required in water", "setting": "[1]; [7]", "value": 0.262}, {"measurement": "NaCl CONCENTRATION REQUIRED TO STABILIZE SILVER-CHLORO COMPLEX SALTS IN AQUEOUS SOLUTION OF 70% (w/v) ETHANOL (b)", "setting": "[1]; [7]", "value": 29.532, "unit": "g/L"}, {"measurement": "NaCl CONCENTRATION REQUIRED TO STABILIZE SILVER-CHLORO COMPLEX SALTS IN WATER (AQUEOUS SOLUTION) (a)", "setting": "[1]; [7]", "value": 112.905, "unit": "g/L"}, {"measurement": "upper limit value of the silver-chloro complex salts", "setting": "[2]", "value": 46, "unit": "ppm"}]}
